Experimental data published in patent US20240158348A1, “HERBICIDAL CYCLIC AMIDES N-SUBSTITUTED WITH A HALOALKYLSULFONYLANILIDE GROUP” (FMC Corporation, priority 2021, published 2024).

Experiments:
Format in all cases: in vivo
soybean (Glycine max) = assay: Test C preemergence, soybean; details: 0 is no effect, 100 is complete control
How it was run: (§1)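 Herbicidal effect was estimated visually on a 0–100 scale 10 or 12 days after spraying. Formulation: non-phytotoxic solvent mixture with surfactant. Timing: directed soil spray after sowing, or postemergence on seedlings bearing one or two leaves.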

[1] = system: ragweed (common ragweed, Ambrosia artemisiifolia); assay: Test C postemergence, ragweed; details: for Ragweed plant response rating: visual injury, 0 to 100 scale (0 no effect, 100 complete control)
How it was run: as §1

[2] = system: wheat (Triticum aestivum); assay: Test C postemergence, wheat; details: for Wheat plant response rating: visual injury, 0 to 100 scale (0 no effect, 100 complete control)
How it was run: as §1

[3] = system: ryegrass, Italian (Italian ryegrass, Lolium multiflorum); assay: Test C preemergence, Italian ryegrass; details: 0 is no effect, 100 is complete control
How it was run: as §1

corn (Zea mays) = assay: Test C postemergence, corn; details: for Corn plant response rating: visual injury, 0 to 100 scale (0 no effect, 100 complete control)
[4] = system: horseweed (Erigeron canadensis); assay: Test C postemergence, horseweed; details: for Horseweed plant response rating: visual injury, 0 to 100 scale (0 no effect, 100 complete control)
How it was run: as §1

[5] = system: sedge, umbrella (small-flower umbrella sedge, Cyperus difformis); assay: Test D flooded paddy test, umbrella sedge; set-up: key: 0 = no effect, 100 = complete control; details: 250 g ai/ha, Flood; applied to paddy water at 2-leaf stage; visual rating after 13 days; scale 0 (no effect) to 100 (complete control)
How it was run: (§2)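 Visual response scores run 0 (no effect) to 100 (complete control), judged against controls 13 days after treatment. Compounds were added to paddy water 3 cm deep over soil, around plants at the 2-leaf stage kept in a greenhouse.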

[6] = system: pigweed, palmer (palmer amaranth, Amaranthus palmeri); assay: Test C preemergence, palmer amaranth; details: 0 is no effect, 100 is complete control
How it was run: as §1

rice (Oryza sativa) = assay: Test D flooded paddy test, rice; set-up: key: 0 = no effect, 100 = complete control; details: 250 g ai/ha, Flood; applied to paddy water at 2-leaf stage; visual rating after 13 days; scale 0 (no effect) to 100 (complete control)
How it was run: as §2

[7] = 125 g ai/ha Postemergence, 0 is no effect, 100 is complete control

## Cc1c(NS(=O)(=O)C(F)(F)F)cc(N2CCC(OCC3CC3)C2=O)c(C)c1F (stereo not shown) [Compound 63]
Soybean (Glycine max); 31 g ai/ha Preemergence
  Plant response rating (0 to 100 scale), Soybean: 60
Soybean (Glycine max); 125 g ai/ha Preemergence
  Plant response rating (0 to 100 scale), Soybean: 100
[1]; 31 g ai/ha Postemergence
  Ragweed plant response rating: 40
[1]; 125 g ai/ha Postemergence
  Ragweed plant response rating: 80
[2]; 31 g ai/ha Postemergence
  Wheat plant response rating: 10
[2]; 125 g ai/ha Postemergence
  Wheat plant response rating: 40
[3]; 31 g ai/ha Preemergence
  Plant response rating (0 to 100 scale), Ryegrass, Italian: 50
[3]; 125 g ai/ha Preemergence
  Plant response rating (0 to 100 scale), Ryegrass, Italian: 100
Corn (Zea mays); 31 g ai/ha Postemergence
  Corn plant response rating: 0
Corn (Zea mays); 125 g ai/ha Postemergence
  Corn plant response rating: 50
[4]; 31 g ai/ha Postemergence
  Horseweed plant response rating: 90
[4]; 125 g ai/ha Postemergence
  Horseweed plant response rating: 90
[5]
  Plant response rating, Sedge, Umbrella: 95
[6]; 31 g ai/ha Preemergence
  Plant response rating (0 to 100 scale), Pigweed, Palmer: 100
[6]; 125 g ai/ha Preemergence
  Plant response rating (0 to 100 scale), Pigweed, Palmer: 100
Rice (Oryza sativa)
  Plant response rating, Rice: 45

## Cc1cc(C)c(N(COC(=O)C(C)(C)C)S(=O)(=O)C(F)(F)F)cc1N1CCC(OCC2CC2)C1=O (stereo not shown) [Compound 53]
Soybean (Glycine max); 31 g ai/ha Preemergence
  Plant response rating (0 to 100 scale), Soybean: 20
Soybean (Glycine max); 125 g ai/ha Preemergence
  Plant response rating (0 to 100 scale), Soybean: 40
[1]; 31 g ai/ha Postemergence
  Ragweed plant response rating: 70
[1]; 125 g ai/ha Postemergence
  Ragweed plant response rating: 90
[2]; 31 g ai/ha Postemergence
  Wheat plant response rating: 40
[2]; 125 g ai/ha Postemergence
  Wheat plant response rating: 80
[3]; 31 g ai/ha Preemergence
  Plant response rating (0 to 100 scale), Ryegrass, Italian: 60
[3]; 125 g ai/ha Preemergence
  Plant response rating (0 to 100 scale), Ryegrass, Italian: 100
Corn (Zea mays); 31 g ai/ha Postemergence
  Corn plant response rating: 20
Corn (Zea mays); 125 g ai/ha Postemergence
  Corn plant response rating: 60
[4]; 31 g ai/ha Postemergence
  Horseweed plant response rating: 80
[4]; 125 g ai/ha Postemergence
  Horseweed plant response rating: 90
[5]
  Plant response rating, Sedge, Umbrella: 98
[6]; 31 g ai/ha Preemergence
  Plant response rating (0 to 100 scale), Pigweed, Palmer: 30
[6]; 125 g ai/ha Preemergence
  Plant response rating (0 to 100 scale), Pigweed, Palmer: 90
Rice (Oryza sativa)
  Plant response rating, Rice: 25

## Cc1cc(C)c(N2CCC(OCC3CC3)C2=O)cc1NS(=O)(=O)C(F)(F)F (stereo not shown) [Compound 22]
Soybean (Glycine max); 31 g ai/ha Preemergence
  Plant response rating (0 to 100 scale), Soybean: 80
Soybean (Glycine max); 125 g ai/ha Preemergence
  Plant response rating (0 to 100 scale), Soybean: 90
[1]; 31 g ai/ha Postemergence
  Ragweed plant response rating: 60
[1]; [7]
  Plant response rating (0 to 100 scale), Ragweed: 80
[2]; 31 g ai/ha Postemergence
  Wheat plant response rating: 50
[2]; [7]
  Plant response rating (0 to 100 scale), Wheat: 60
[3]; 31 g ai/ha Preemergence
  Plant response rating (0 to 100 scale), Ryegrass, Italian: 100
[3]; 125 g ai/ha Preemergence
  Plant response rating (0 to 100 scale), Ryegrass, Italian: 100
Corn (Zea mays); 31 g ai/ha Postemergence
  Corn plant response rating: 50
Corn (Zea mays); [7]
  Plant response rating (0 to 100 scale), Corn: 90
[4]; 31 g ai/ha Postemergence
  Horseweed plant response rating: 90
[4]; [7]
  Plant response rating (0 to 100 scale), Horseweed: 90
[5]
  Plant response rating, Sedge, Umbrella: 95
[6]; 31 g ai/ha Preemergence
  Plant response rating (0 to 100 scale), Pigweed, Palmer: 100
[6]; 125 g ai/ha Preemergence
  Plant response rating (0 to 100 scale), Pigweed, Palmer: 100
Rice (Oryza sativa)
  Plant response rating, Rice: 55

## Cc1cc(C)c(N2CCC(OCC3CCCC3)C2=O)cc1NS(=O)(=O)C(F)(F)F (stereo not shown) [Compound 57]
Soybean (Glycine max); 31 g ai/ha Preemergence
  Plant response rating (0 to 100 scale), Soybean: 70
Soybean (Glycine max); 125 g ai/ha Preemergence
  Plant response rating (0 to 100 scale), Soybean: 90
[1]; 31 g ai/ha Postemergence
  Ragweed plant response rating: 40
[1]; 125 g ai/ha Postemergence
  Ragweed plant response rating: 60
[2]; 31 g ai/ha Postemergence
  Wheat plant response rating: 70
[2]; 125 g ai/ha Postemergence
  Wheat plant response rating: 70
[3]; 31 g ai/ha Preemergence
  Plant response rating (0 to 100 scale), Ryegrass, Italian: 70
[3]; 125 g ai/ha Preemergence
  Plant response rating (0 to 100 scale), Ryegrass, Italian: 90
Corn (Zea mays); 31 g ai/ha Postemergence
  Corn plant response rating: 0
Corn (Zea mays); 125 g ai/ha Postemergence
  Corn plant response rating: 40
[4]; 31 g ai/ha Postemergence
  Horseweed plant response rating: 0
[4]; 125 g ai/ha Postemergence
  Horseweed plant response rating: 80
[5]
  Plant response rating, Sedge, Umbrella: 95
[6]; 31 g ai/ha Preemergence
  Plant response rating (0 to 100 scale), Pigweed, Palmer: 100
[6]; 125 g ai/ha Preemergence
  Plant response rating (0 to 100 scale), Pigweed, Palmer: 100
Rice (Oryza sativa)
  Plant response rating, Rice: 10
